The first series deals with human (tumor) Hif2α (EPAS1) mRNA. The series is described as follows: Hif2α knockdown in orthotopic RCC tumor bearing mice, single injection of RNAi trigger-delivery polymer conjugate, RT-qPCR (Table 7). To be noted: RNAi trigger 100 μg, polymer 100A 250 μg; single tail vein injection; relative to isotonic glucose. The format is in vivo. Put shortly: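 A single intravenous dose of Hif2α RNAi trigger–delivery polymer conjugate, or isotonic glucose vehicle, was given to nude mice with subcapsular A498-SEAP renal tumours (about 5–6 weeks old). At the indicated time, tumour RNA was assayed by biplex TaqMan qPCR against CycA, and relative expression was calculated by ΔΔCT versus vehicle.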
In general terms: In qPCR the cycle at which signal appears reflects the starting amount.
With “AD01654 (antisense TUUCAUGAAAUCGUUACGUTT; sense ACGUAACGAUUUCAUGAAA; Hif2alpha RNAi agent antisense strand; modified_base 2,4,6,8,10,13,14,16,18 /mod_base = “2′-deoxy-2′-fluoro corresponding nucleoside”; modified_base 3,5,7,9,11,12,15,17,19 /mod_base = “2′-O-methyl corresponding nucleoside”; modified_base 2,21 /mod_base = “5′-phosphorothioate corresponding nucleotide”; Hif2alpha RNAi agent sense strand; modified_base 1,3,5,8,9,11,13,15,17,19 /mod_base = “2′-deoxy-2′-fluoro corresponding nucleoside”; modified_base 2,4,6,7,10,12,14,16,18 /mod_base = “2′-O-methyl corresponding nucleoside”; modified_base 2 /mod_base = “5′-phosphorothioate corresponding nucleotide)”, the “Relative Expression day 4 (Hif2α mRNA in kidney tumor)” value turned out to be 0.185.

Regarding “AD01655 (antisense TUUCAUGAAAUCGUUACGUTT; sense ACGUAACGAUUUCAUGAAAT; Hif2alpha RNAi agent antisense strand; modified_base 2,4,6,8,10,13,14,16,18 /mod_base = “2′-deoxy-2′-fluoro corresponding nucleoside”; modified_base 3,5,7,9,11,12,15,17,19 /mod_base = “2′-O-methyl corresponding nucleoside”; modified_base 2,21 /mod_base = “5′-phosphorothioate corresponding nucleotide”; Hif2alpha RNAi agent sense strand; modified_base 1,3,5,8,9,11,13,15,17,19 /mod_base = “2′-deoxy-2′-fluoro corresponding nucleoside”; modified_base 2,4,6,7,10,12,14,16,18 /mod_base = “2′-O-methyl corresponding nucleoside”; modified_base 20 /mod_base = “3′-3′-linked nucleotide”; modified_base 1 /)”, the “Relative Expression day 4 (Hif2α mRNA in kidney tumor)” value stood at 0.234.

Consider “AD01656 (antisense TUUCAUGAAAUCGUUACGUTT; sense ACGUAACGAUUUCAUGAAA; Hif2alpha RNAi agent antisense strand; modified_base 2,4,6,8,10,12,14,15,18 /mod_base = “2′-deoxy-2′-fluoro corresponding nucleoside”; modified_base 3,5,7,9,11,13,16,17,19 /mod_base = “2′-O-methyl corresponding nucleoside”; modified_base 2,21 /mod_base = “5′-phosphorothioate corresponding nucleotide”; Hif2alpha RNAi agent sense strand; modified_base 1,3,4,7,9,11,13,15,17,19 /mod_base = “2′-deoxy-2′-fluoro corresponding nucleoside”; modified_base 2,5,6,8,10,12,14,16,18 /mod_base = “2′-O-methyl corresponding nucleoside”; modified_base 2 /mod_base = “5′-phosphorothioate corresponding nucleotide)”, for which the “Relative Expression day 4 (Hif2α mRNA in kidney tumor)” value is 0.184. With “AD01657 (antisense TUUCAUGAAAUCGUUACGUTT; sense ACGUAACGAUUUCAUGAAAT; Hif2alpha RNAi agent antisense strand; modified_base 2,4,6,8,10,12,14,15,18 /mod_base = “2′-deoxy-2′-fluoro corresponding nucleoside”; modified_base 3,5,7,9,11,13,16,17,19 /mod_base = “2′-O-methyl corresponding nucleoside”; modified_base 2,21 /mod_base = “5′-phosphorothioate corresponding nucleotide”; Hif2alpha RNAi agent sense strand; modified_base 1,3,4,7,9,11,13,15,17,19 /mod_base = “2′-deoxy-2′-fluoro corresponding nucleoside”; modified_base 2,5,6,8,10,12,14,16,18 /mod_base = “2′-O-methyl corresponding nucleoside”; modified_base 20 /mod_base = “3′-3′-linked nucleotide”; modified_base 1 /)”, the “Relative Expression day 4 (Hif2α mRNA in kidney tumor)” value was determined as 0.256.

For “AD01658 (antisense TUUCAUGAAAUCGUUACGUTT; sense ACGUAACGAUUUCAUGAAA; Hif2alpha RNAi agent antisense strand; modified_base 2,4,6,8,10,12,14,15,18 /mod_base = “2′-deoxy-2′-fluoro corresponding nucleoside”; modified_base 3,5,7,9,11,13,16,17,19 /mod_base = “2′-O-methyl corresponding nucleoside”; modified_base 2,3,21 /mod_base = “5′-phosphorothioate corresponding nucleotide”; Hif2alpha RNAi agent sense strand; modified_base 1,3,4,7,9,11,13,15,17,19 /mod_base = “2′-deoxy-2′-fluoro corresponding nucleoside”; modified_base 2,5,6,8,10,12,14,16,18 /mod_base = “2′-O-methyl corresponding nucleoside”; modified_base 2 /mod_base = “5′-phosphorothioate corresponding nucleoti)”, the “Relative Expression day 4 (Hif2α mRNA in kidney tumor)” value was found to be 0.138.

Staying with this series, now noted: RNAi trigger 115 μg, polymer 100A 375 μg; single tail vein injection; relative to isotonic glucose.
Consider “AD01523 (antisense TUUCAUGAAAUCGUUACGUTT; sense ACGUAACGAUUUCAUGAAAT; Hif2alpha RNAi agent antisense strand; modified_base 2,4,6,8,10,13,14,16,18 /mod_base = “2′-deoxy-2′-fluoro corresponding nucleoside”; modified_base 3,5,7,9,11,12,15,17,19 /mod_base = “2′-O-methyl corresponding nucleoside”; modified_base 21 /mod_base = “5′-phosphorothioate corresponding nucleotide”; Hif2alpha RNAi agent sense strand; modified_base 1,3,5,8,9,11,13,15,17,19 /mod_base = “2′-deoxy-2′-fluoro corresponding nucleoside”; modified_base 2,4,6,7,10,12,14,16,18 /mod_base = “2′-O-methyl corresponding nucleoside”; modified_base 20 /mod_base = “3′-3′-linked nucleotide”; modified_base 1 /mo)”, for which the “Relative Expression day 4 (Hif2α mRNA in kidney tumor)” value is 0.49. Same read-out and setting: as for “AD01524 (antisense TUUCAUGAAAUCGUUACGUTT; sense ACGUAACGAUUUCAUGAAAT; Hif2alpha RNAi agent antisense strand; modified_base 2,4,6,8,10,12,14,16,18 /mod_base = “2′-deoxy-2′-fluoro corresponding nucleoside”; modified_base 3,5,7,9,11,13,15,17,19 /mod_base = “2′-O-methyl corresponding nucleoside”; modified_base 2,3,21 /mod_base = “5′-phosphorothioate corresponding nucleotide”; Hif2alpha RNAi agent sense strand; modified_base 1,3,5,7,9,11,13,15,17,19 /mod_base = “2′-deoxy-2′-fluoro corresponding nucleoside”; modified_base 2,4,6,8,10,12,14,16,18 /mod_base = “2′-O-methyl corresponding nucleoside”; modified_base 20 /mod_base = “3′-3′-linked nucleotide”; modified_base 1)”, the figure is 0.26; as for “AD01554 (antisense TUUCAUGAAAUCGUUACGUTT; sense ACGUAACGAUUUCAUGAAAT; Hif2alpha RNAi agent antisense strand; modified_base 2,4,6,8,10,13,14,16,18 /mod_base = “2′-deoxy-2′-fluoro corresponding nucleoside”; modified_base 3,5,7,9,11,12,15,17,19 /mod_base = “2′-O-methyl corresponding nucleoside”; modified_base 2,3,21 /mod_base = “5′-phosphorothioate corresponding nucleotide”; Hif2alpha RNAi agent sense strand; modified_base 1,3,5,8,9,11,13,15,17,19 /mod_base = “2′-deoxy-2′-fluoro corresponding nucleoside”; modified_base 2,4,6,7,10,12,14,16,18 /mod_base = “2′-O-methyl corresponding nucleoside”; modified_base 20 /mod_base = “3′-3′-linked nucleotide”; modified_base 1)”, 0.29; as for “AD01555 (antisense TUUCAUGAAAUCGUUACGUTT; sense ACGUAACGAUUUCAUGAAAT; Hif2alpha RNAi agent antisense strand; modified_base 2,4,6,8,10,14,16,18 /mod_base = “2′-deoxy-2′-fluoro corresponding nucleoside”; modified_base 3,5,7,9,11,12,13,15,17,19 /mod_base = “2′-O-methyl corresponding nucleoside”; modified_base 2,3,21 /mod_base = “5′-phosphorothioate corresponding nucleotide”; Hif2alpha RNAi agent sense strand; modified_base 1,3,5,7,8,9,11,13,15,17,19 /mod_base = “2′-deoxy-2′-fluoro corresponding nucleoside”; modified_base 2,4,6,10,12,14,16,18 /mod_base = “2′-O-methyl corresponding nucleoside”; modified_base 20 /mod_base = “3′-3′-linked nucleotide”; modified_base 1)”, 0.20.
